A short description of this data set: Compatibility of antimicrobial agent with sterilization procedures. The conditions noted are these: comparison of Tables II and III. It counts as physicochemical. The text has this: Optionally, in embodiments of the present invention, the potential agent can be tested for its compatibility with one or more sterilization procedures. This optional screening procedure can also be performed by mixing an appropriate amount of the agent with a desired amount of the monomer composition and any other desired additives, and then subjecting the resultant composition to one or more sterilization procedures. Compatibility of the agent with one or more sterilization procedures is preferred in embodiments of the present invention because many uses of the polymerizable monomer compositions, such as many medical applications, require or prefer sterilized products. Following sterilization, the agent can exert antimicrobial action in killing or preventing growth of microbes that may be introduced into the pre-sterilized monomer compositions.

Molecules are shown by their SMILES.

On to `Cc1ccc(C(C)C)c(O)c1` [thymol], for which the “Compatibility with forms of sterilization” value is given as “more compatible with one form of sterilization than it is with another form of sterilization”.

The values above are taken from patent US6579469B1, “Cyanoacrylate solutions containing preservatives” (priority 1999, dated 2003).
